Values after ≈ are worked out from the molar mass of the structure shown. One block for each compound: values may come before it.
Experiments:
Staphylococcus aureus [1] = assay: Antimicrobial activity against methicillin-resistant Staphylococcus aureus ATCC 33591 measured after 16 hrs by broth microdilution method; format: functional; settings: ATCC 33591, 16 h
Staphylococcus aureus [2] = assay: Antimicrobial activity against methicillin-sensitive Staphylococcus aureus ATCC 29213 measured after 16 hrs by broth microdilution method; format: functional; settings: ATCC 29213, 16 h
Escherichia coli [3] = assay: Antimicrobial activity against Escherichia coli SQ110 LPTD measured after 16 hrs by broth microdilution method; format: functional
Escherichia coli [4] = assay: Antimicrobial activity against Escherichia coli SQ110 measured after 16 hrs by broth microdilution method; format: functional; settings: SQ110, 16 h
Escherichia coli [5] = assay: Antimicrobial activity against Escherichia coli SQ110 DTC measured after 16 hrs by broth microdilution method; format: functional
A549 = assay: Cytotoxicity against human A549 cells assessed as reduction in cell viability measured after 72 hrs by ATP-liteM luciferin-luciferase assay; format: cell-based; settings: A549, 72 h
[6] = Hemolysis in red blood cells (unknown origin) up to 40 uM; format: ADME, cell-based, Erythrocyte; settings: read-out: Activity
Acinetobacter baumannii = assay: Antimicrobial activity against Acinetobacter baumannii ATCC 19606 measured after 16 hrs by broth microdilution method; format: functional; settings: ATCC 19606 = CIP 70.34 = JCM 6841, 16 h

Compound: CC(C)[C@@H]1O/C(=C/C(=O)Cc2ccc(F)cc2)NC1=O
MIC (Staphylococcus aureus [1]): 2 µg/mL (≈ 7.21 µM) | MIC (Staphylococcus aureus [2]): 4 µg/mL (≈ 14.4 µM)

MIC (Escherichia coli [3]): 32 µg/mL (≈ 108 µM) | MIC (Escherichia coli [4]): > 128 µg/mL | MIC (Escherichia coli [5]): 1 to 2 µg/mL (≈ 3.38 to 6.77 µM) | MIC (Staphylococcus aureus [2]): 0.5 µg/mL (≈ 1.69 µM)
Compound: CCCCCCCCCC(=O)/C=C1\NC(=O)[C@H](C(C)C)O1
IC50 (A549): 10 µg/mL (≈ 33.8 µM) | hemolysis [6]: < 1%

Compound: CC(C)[C@@H]1O/C(=C/C(=O)Cc2ccc(C(C)(C)C)cc2)NC1=O
MIC (Staphylococcus aureus [1]): 2 µg/mL (≈ 6.34 µM) | MIC (Staphylococcus aureus [2]): 4 µg/mL (≈ 12.7 µM)

Compound: CC(C)[C@@H]1O/C(=C/C(=O)CCc2ccc(Br)cc2)NC1=O
MIC (Staphylococcus aureus [1]): 1 µg/mL (≈ 2.84 µM) | MIC (Staphylococcus aureus [2]): 2 µg/mL (≈ 5.68 µM) | MIC (Acinetobacter baumannii): 128 µg/mL (≈ 363 µM)

Compound: CC(C)[C@@H]1O/C(=C/C(=O)Cc2ccc(N)cc2)NC1=O
MIC (Staphylococcus aureus [1]): 64 µg/mL (≈ 233 µM) | MIC (Staphylococcus aureus [2]): > 128 µg/mL

Compound: CC(C)[C@@H]1O/C(=C/C(=O)Cc2ccc(Cl)cc2)NC1=O
MIC (Staphylococcus aureus [1]): 0.5 µg/mL (≈ 1.7 µM) | MIC (Staphylococcus aureus [2]): 2 µg/mL (≈ 6.81 µM) | MIC (Acinetobacter baumannii): 64 µg/mL (≈ 218 µM)

Compound: CC(C)[C@@H]1O/C(=C/C(=O)CCc2ccc(C(C)(C)C)cc2)NC1=O
MIC (Staphylococcus aureus [1]): 0.25 µg/mL (≈ 0.759 µM) | MIC (Staphylococcus aureus [2]): 2 µg/mL (≈ 6.07 µM)

Compound: Cc1ccc(C)c(CC(=O)/C=C2\NC(=O)[C@H](C(C)C)O2)c1
MIC (Staphylococcus aureus [1]): 8 µg/mL (≈ 27.8 µM) | MIC (Staphylococcus aureus [2]): 16 µg/mL (≈ 55.7 µM)

Compound: CC(C)[C@@H]1O/C(=C/C(=O)Cc2cc(F)ccc2F)NC1=O
MIC (Staphylococcus aureus [1]): 8 µg/mL (≈ 27.1 µM) | MIC (Staphylococcus aureus [2]): 16 µg/mL (≈ 54.2 µM)

Compound: CC(C)[C@@H]1O/C(=C/C(=O)CCc2ccccc2)NC1=O
MIC (Staphylococcus aureus [1]): 4 µg/mL (≈ 14.6 µM) | MIC (Staphylococcus aureus [2]): 8 µg/mL (≈ 29.3 µM) | MIC (Acinetobacter baumannii): 128 µg/mL (≈ 468 µM)

Compound: CC(C)[C@@H]1O/C(=C/C(=O)Cc2ccc(Br)cc2)NC1=O
MIC (Staphylococcus aureus [1]): 0.5 µg/mL (≈ 1.48 µM) | MIC (Staphylococcus aureus [2]): 1 µg/mL (≈ 2.96 µM) | MIC (Acinetobacter baumannii): 64 µg/mL (≈ 189 µM)

Compound: CC(C)[C@@H]1O/C(=C/C(=O)CCc2ccc(Cl)cc2)NC1=O
MIC (Staphylococcus aureus [1]): 0.5 µg/mL (≈ 1.62 µM) | MIC (Staphylococcus aureus [2]): 2 µg/mL (≈ 6.5 µM) | MIC (Acinetobacter baumannii): 128 µg/mL (≈ 416 µM)

Compound: COc1ccc(OC)c(CCC(=O)/C=C2\NC(=O)[C@H](C(C)C)O2)c1
MIC (Staphylococcus aureus [1]): 8 µg/mL (≈ 24 µM) | MIC (Staphylococcus aureus [2]): 4 µg/mL (≈ 12 µM) | MIC (Acinetobacter baumannii): > 128 µg/mL

Compound: Cc1ccc(CCC(=O)/C=C2\NC(=O)[C@H](C(C)C)O2)cc1
MIC (Staphylococcus aureus [1]): 8 µg/mL (≈ 27.8 µM) | MIC (Staphylococcus aureus [2]): 16 µg/mL (≈ 55.7 µM)

Compound: CC(C)[C@@H]1O/C(=C/C(=O)Cc2ccc(-c3ccccc3)cc2)NC1=O
MIC (Escherichia coli [3]): 32 µg/mL (≈ 95.4 µM) | MIC (Escherichia coli [4]): > 128 µg/mL | MIC (Escherichia coli [5]): 0.25 µg/mL (≈ 0.745 µM) | MIC (Staphylococcus aureus [1]): 0.125 µg/mL (≈ 0.373 µM) | MIC (Staphylococcus aureus [2]): 0.25 µg/mL (≈ 0.745 µM) | MIC (Acinetobacter baumannii): > 128 µg/mL

Compound: CC(C)[C@@H]1O/C(=C/C(=O)Cc2ccc(C(F)(F)F)cc2)NC1=O
MIC (Staphylococcus aureus [1]): 2 µg/mL (≈ 6.11 µM) | MIC (Staphylococcus aureus [2]): 4 µg/mL (≈ 12.2 µM) | MIC (Acinetobacter baumannii): 128 µg/mL (≈ 391 µM)

Compound: Cc1ccc(CC(=O)/C=C2\NC(=O)[C@H](C(C)C)O2)cc1
MIC (Staphylococcus aureus [1]): 2 µg/mL (≈ 7.32 µM) | MIC (Staphylococcus aureus [2]): 4 µg/mL (≈ 14.6 µM) | MIC (Acinetobacter baumannii): 128 µg/mL (≈ 468 µM)

Compound: CC(C)[C@@H]1O/C(=C/C(=O)Cc2ccc(OC(F)(F)F)cc2)NC1=O
MIC (Escherichia coli [3]): 32 µg/mL (≈ 93.2 µM) | MIC (Escherichia coli [4]): > 128 µg/mL | MIC (Escherichia coli [5]): 0.06 µg/mL (≈ 0.175 µM) | IC50 (A549): 14 µg/mL (≈ 40.8 µM) | MIC (Staphylococcus aureus [1]): 0.5 µg/mL (≈ 1.46 µM) | MIC (Staphylococcus aureus [2]): 2 µg/mL (≈ 5.83 µM) | hemolysis [6]: < 1%

Compound: CC(C)[C@@H]1O/C(=C/C(=O)Cc2cc(F)c(F)c(F)c2)NC1=O
MIC (Staphylococcus aureus [1]): 4 µg/mL (≈ 12.8 µM) | MIC (Staphylococcus aureus [2]): 8 µg/mL (≈ 25.5 µM)

Compound: CC(C)[C@@H]1O/C(=C/C(=O)CCc2ccc(C(F)(F)F)cc2)NC1=O
MIC (Staphylococcus aureus [1]): 0.5 µg/mL (≈ 1.46 µM) | MIC (Staphylococcus aureus [2]): 2 µg/mL (≈ 5.86 µM)

Compound: CC(C)[C@@H]1O/C(=C/C(=O)Cc2cccc(Br)c2)NC1=O
MIC (Staphylococcus aureus [1]): 2 µg/mL (≈ 5.91 µM) | MIC (Staphylococcus aureus [2]): 16 µg/mL (≈ 47.3 µM)

Compound: CC(C)[C@@H]1O/C(=C/C(=O)Cc2ccc(C#N)cc2)NC1=O
MIC (Staphylococcus aureus [1]): 4 µg/mL (≈ 14.1 µM) | MIC (Staphylococcus aureus [2]): 8 µg/mL (≈ 28.1 µM)

Compound: CC(C)[C@@H]1O/C(=C/C(=O)Cc2ccccc2)NC1=O
MIC (Escherichia coli [3]): 32 µg/mL (≈ 123 µM) | MIC (Escherichia coli [4]): > 128 µg/mL | MIC (Escherichia coli [5]): 2 µg/mL (≈ 7.71 µM) | MIC (Staphylococcus aureus [1]): 2 µg/mL (≈ 7.71 µM) | MIC (Staphylococcus aureus [2]): 4 µg/mL (≈ 15.4 µM)

Compound: CC(C)[C@@H]1O/C(=C/C(=O)CCc2ccc(F)cc2)NC1=O
MIC (Staphylococcus aureus [1]): 8 µg/mL (≈ 27.5 µM) | MIC (Staphylococcus aureus [2]): 16 µg/mL (≈ 54.9 µM)

Compound: CC(C)[C@@H]1O/C(=C/C(=O)Cc2ccc([N+](=O)[O-])cc2)NC1=O
MIC (Staphylococcus aureus [1]): 8 µg/mL (≈ 26.3 µM) | MIC (Staphylococcus aureus [2]): 64 µg/mL (≈ 210 µM)

Compound: COc1ccc(OC)c(CC(=O)/C=C2\NC(=O)[C@H](C(C)C)O2)c1
MIC (Staphylococcus aureus [1]): 4 µg/mL (≈ 12.5 µM) | MIC (Staphylococcus aureus [2]): 16 µg/mL (≈ 50.1 µM)

Compound: CC(C)[C@@H]1O/C(=C/C(=O)Cc2ccccc2Br)NC1=O
MIC (Staphylococcus aureus [1]): 8 µg/mL (≈ 23.7 µM) | MIC (Staphylococcus aureus [2]): 16 µg/mL (≈ 47.3 µM)

Compound: CC(=O)NC[C@H]1CN(c2ccc(N3CCOCC3)c(F)c2)C(=O)O1 [LINEZOLID]
MIC (Escherichia coli [3]): 32 µg/mL (≈ 94.9 µM) | MIC (Escherichia coli [4]): > 128 µg/mL | MIC (Escherichia coli [5]): 2 µg/mL (≈ 5.93 µM) | MIC (Staphylococcus aureus [1]): 0.5 µg/mL (≈ 1.48 µM) | MIC (Staphylococcus aureus [2]): 1 µg/mL (≈ 2.96 µM) | MIC (Acinetobacter baumannii): 64 µg/mL (≈ 190 µM)

Compound: CC(C)[C@@H]1O/C(=C/C(=O)CCCCCc2ccccc2)NC1=O
MIC (Staphylococcus aureus [1]): 2 µg/mL (≈ 6.34 µM) | MIC (Staphylococcus aureus [2]): 4 µg/mL (≈ 12.7 µM) | MIC (Acinetobacter baumannii): 128 µg/mL (≈ 406 µM)
